Our source for the IC50 values is patent EP4741386A1 (Jiangsu Yahong Meditech Co., Ltd., priority 2023, dated 2025).

Broadly, the IC50 is the point on the concentration scale where inhibition reaches its midpoint.

The first test deals with T1, Recombinant human His6-USP1/His6-UAF1 complex protein (Homo sapiens, UniProt O94782).
T1 construct: His6; purchased R&D E-568-050
T1 sequence (O94782 whole entry): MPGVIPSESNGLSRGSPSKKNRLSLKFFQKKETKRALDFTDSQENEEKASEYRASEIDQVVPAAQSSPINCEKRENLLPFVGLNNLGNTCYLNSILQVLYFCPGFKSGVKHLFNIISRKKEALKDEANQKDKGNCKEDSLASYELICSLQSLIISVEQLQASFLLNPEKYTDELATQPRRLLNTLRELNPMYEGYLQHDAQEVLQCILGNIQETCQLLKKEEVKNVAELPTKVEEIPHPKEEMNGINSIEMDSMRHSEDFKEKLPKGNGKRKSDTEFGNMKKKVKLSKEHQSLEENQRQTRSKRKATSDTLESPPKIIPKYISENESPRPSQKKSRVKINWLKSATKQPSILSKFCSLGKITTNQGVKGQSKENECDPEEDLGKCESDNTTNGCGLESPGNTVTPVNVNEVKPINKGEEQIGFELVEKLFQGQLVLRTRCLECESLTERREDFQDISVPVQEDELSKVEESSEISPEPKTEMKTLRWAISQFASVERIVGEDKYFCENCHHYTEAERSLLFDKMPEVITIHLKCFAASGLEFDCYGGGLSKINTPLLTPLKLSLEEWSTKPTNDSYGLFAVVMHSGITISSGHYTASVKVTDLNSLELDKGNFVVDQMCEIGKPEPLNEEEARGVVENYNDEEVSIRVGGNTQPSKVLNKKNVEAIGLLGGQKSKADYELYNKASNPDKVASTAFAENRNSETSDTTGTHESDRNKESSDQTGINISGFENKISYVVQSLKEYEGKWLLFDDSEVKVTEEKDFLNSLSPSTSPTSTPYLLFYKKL
T1 sequence (Q8TAF3 whole entry partner): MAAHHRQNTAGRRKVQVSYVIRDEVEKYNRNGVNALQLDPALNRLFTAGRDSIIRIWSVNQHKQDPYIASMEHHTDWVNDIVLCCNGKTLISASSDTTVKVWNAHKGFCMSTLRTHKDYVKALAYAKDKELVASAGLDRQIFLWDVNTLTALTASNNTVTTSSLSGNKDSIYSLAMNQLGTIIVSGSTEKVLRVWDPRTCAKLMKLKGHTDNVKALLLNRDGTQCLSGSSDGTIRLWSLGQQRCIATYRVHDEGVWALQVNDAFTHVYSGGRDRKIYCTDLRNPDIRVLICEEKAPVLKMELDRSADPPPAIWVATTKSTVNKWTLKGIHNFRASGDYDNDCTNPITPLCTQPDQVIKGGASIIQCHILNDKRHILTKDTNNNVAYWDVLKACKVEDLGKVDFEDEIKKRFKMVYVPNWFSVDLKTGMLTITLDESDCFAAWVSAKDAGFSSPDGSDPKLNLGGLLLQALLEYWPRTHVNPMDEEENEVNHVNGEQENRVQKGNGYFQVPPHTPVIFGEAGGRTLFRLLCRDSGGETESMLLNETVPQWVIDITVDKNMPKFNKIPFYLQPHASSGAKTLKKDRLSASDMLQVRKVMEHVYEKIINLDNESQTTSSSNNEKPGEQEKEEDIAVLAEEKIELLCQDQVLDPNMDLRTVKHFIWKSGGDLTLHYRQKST
Put plainly: In vitro inhibitory activity against USP1 (Ubiquitin Rhodamine 110 fluorescence detection, 384-well plate). To be noted: Ub-Rho substrate, 1 hour pre-incubation, read after 30 minutes. It counts as biochemical. Here is the method:
Test Example 1: In vitro inhibitory activity against USP1 […]
Experimental object: to screen compounds with inhibitory activity against USP1 […] by a fluorescence detection method, using a 384-well plate.
Experimental materials: Recombinant human His6-USP1/His6-UAF1 complex protein (R&D, Cat. No.: E-568-050), Ubiquitin Rhodamine 110 protein (Ub-Rho) (R&D, Cat. No.: U-555-050), 384-well plate (Perkin Elmer, Cat. No.: 6007279); all compounds were dissolved in 100% DMSO to obtain 50 mM stock solutions.
• 1) Preparation of 1 × assay buffer: 1 × assay buffer (modified Tris buffer) was prepared; • 2) Dilution of compounds: the compounds were transferred to an assay plate via Echo.
Regarding `Cc1cc(C(F)(F)F)nn1-c1ccc(CNc2nc(-c3ccccc3C(C)C)ncc2O)cc1` [Example 90, 2-(2-Isopropylphenyl)-4-((4-(5-methyl-3-(trifluoromethyl)-1H-pyrazol-1-vl)benzyl)amino)pyrimidin-5-ol], the IC50 worked out at 102 nM.
On the same count and under the same terms, the result for `COc1cnc(-c2ccccc2C(C)C)nc1NCc1ccc2c(c1)CN(C1CCC(=O)NC1=O)C2=O` (centres unmarked) [Example 41, 3-(5-(((2-(2-Isopropylphenyl)-5-methoxypyrimidin-4-yl)amino)methyl)-1-oxoisoindolin-2-yl)piperidine-2,6-dione] reads 1260 nM; that for `COc1ncnc(C2CC2)c1-c1nc(NCc2ccc(OC3CC(OC)C3)cc2)c2occc2n1` (centres unmarked) [Example 118, 2-(4-Cyclopropyl-6-methoxypyrimidin-5-yl)-N-(4-(3-methoxycyclobutoxy)benzyl)furo[3,2-d]pyrimidin-4-amine], 58 nM; that for `COc1cnn(C(C)C)c1-c1nc(NCc2ccc(-c3ccccn3)cc2)c2occc2n1` [Example 181, 2-(1-Isopropyl-4-methoxy-1H-pyrazol-5-yl)-N-(4-(pyridin-2-yl)benzyl)furo[3,2-d]pyrimidin-4-amine], 27 nM.
On the same count and under the same terms, the same measure for `COc1cnc(-c2c(C)ncn2C(C)C)nc1NCc1ccc(-c2nc(C(F)(F)F)cn2C)cc1` [Example 147, 2-(1-Isopropyl-4-methyl-1H-imidazol-5-yl)-5-methoxy-N-(4-(1-methyl-4-(trifluoromethyl)-1H-imidazol-2-yl)benzyl)pyrimidin-4-amine]: 364 nM.
The same measure, in the same setting: the result for `COc1ncnc(C2CC2)c1-c1nc(NCc2ccc(-c3ccccn3)cc2)c2[nH]ccc2n1` [Example 37, 2-(4-Cyclopropyl-6-methoxypyrimidin-5-yl)-N-(4-(pyridin-2-yl)benzyl)-5H-pyrrolo[3,2-d]pyrimidin-4-amine] reads 51 nM; that for `COc1cnc(-c2c(OC)ncnc2C2CC2)nc1N(C)CC12CCC(c3nc(C(F)(F)F)cn3C)(CC1)OC2` [Example S10, 4'-Cyclopropyl-5,6'-dimethoxy-N-methyl-N-((1-(1-methyl-4-(trifluoromethyl)-1H-imidazol-2-yl)-2-oxabicyclo[2.2.2]oct-4-yl)methyl)-[2,5'-bipyrimidin]-4-amine], 19 nM; that for `Cc1ncn(C(C)C)c1-c1nc(NCC23CCC(c4ccc(C(F)(F)F)cn4)(CC2)CC3)c2occc2n1` [Example 150, 2-(1-Isopropyl-4-methyl-1H-imidazol-5-yl)-N-((4-(5-(trifluoromethyl)pyridin-2-yl)bicyclo[2.2.2]octan-1-yl)methyl)furo[3,2-d]pyrimidin-4-amine], 431 nM.
With `CC(C)c1ccccc1-c1nc(NCc2ccc3c(c2)CCN(C)C3=O)c2occc2n1` [Example 77, 6-(((2-(2-Isopropylphenyl)furo[3,2-d]pyrimidin-4-yl)amino)methyl)-2-methyl-3,4-dihydroisoquinolin-1 (2H)-one], the IC50 came to 28 nM.
Take `CC(C)c1ccccc1-c1ncc(C(F)(F)F)c(NCC2CCN(c3ccccn3)CC2)n1` [Example 76, 2-(2-Isopropylphenyl)-N-((1-(pyridin-2-yl)piperidin-4-yl)methyl)-5-(trifluoromethyl)pyrimidin-4-amine]: the IC50 was found to be 30.1 nM.
On the same count and under the same terms, the same measure for `CC(C)c1ccccc1-c1ncc(N2CCOCC2)c(NCc2ccc(-c3nc(C(F)(F)F)cn3C)cc2)n1` [Example 87, 2-(2-Isopropylphenyl)-N-(4-(1-methyl-4-(trifluoromethyl)-1H-imidazol-2-yl)benzyl)-5-morpholinopyrimidin-4-amine]: 6.2 nM; for `COc1cnc(-c2c(OC)ncnc2C2CC2)nc1N(C)CC12CCC(c3nc(C(F)(F)F)cn3C)(CC1)OC2` [Example 212, 4'-cyclopropyl-5,6'-dimethoxy-N-methyl-N-((1-(1-methyl-4-(trifluoromethyl)-1H-imidazol-2-yl)-2-oxabicyclo[2.2.2]octan-4-yl)methyl)-[2,5'-bipyrimidin]-4-amine]: 19 nM; for `COc1cnc(-c2c(OC)cnn2C(C)C)nc1NCc1ccc(-c2ccccn2)cc1` [Example 178, 2-(1-Isopropyl-4-methoxy-1H-pyrazol-5-yl)-5-methoxy-N-(4-(pyridin-2-yl)benzyl)pyrimidin-4-amine]: 110 nM.
Consider `COc1ncnc(C2CC2)c1-c1ncc2c(n1)N(CC1CCN(c3ccccn3)CC1)CCO2` [Example 10, 2-(4-Cyclopropyl-6-methoxypyrimidin-5-yl)-8-((1-(pyridin-2-yl)piperidin-4-yl)methyl)-7,8-dihydro-6H-pyrimido[5,4-b][1,4]oxazine], for which the IC50 is 564 nM.
The same measure, in the same setting: the same measure for `COc1cnc(-c2c(Cl)cnn2C(C)C)nc1NCC12CCC(c3nc(C(F)(F)F)cn3C3CCC3)(CC1)OC2` [Example S11, 2-(4-Chloro-1-isopropyl-1H-pyrazol-5-yl)-N-((1-(1-cyclobutyl-4-(trifluoromethyl)-1H-imidazol-2-yl)-2-oxabicyclo[2.2.2]oct-4-yl)methyl)-5-methoxypyrimidin-4-amine]: 6.1 nM; for `CCOCCOc1ccc(CNc2nc(-c3ccccc3C(C)C)nc3ccoc23)cc1` [Example 79, N-(4-(2-Ethoxyethoxy)benzyl)-2-(2-isopropylphenyl)furo[3,2-d]pyrimidin-4-amine]: 4.5 nM; for `COc1cnc(-c2c(Cl)cnn2C(C)C)nc1N(C)CC12CCC(c3nc(C(F)(F)F)cn3C)(CC1)OC2` [Example 211, 2-(4-chloro-1-isopropyl-1H-pyrazol-5-yl)-5-methoxy-N-methyl-N-((1-(1-methyl-4-(trifluoromethyl)-1H-imidazol-2-yl)-2-oxabicyclo [2.2.2]octan-4-yl)methyl)pyrimidin-4-amine]: 6.1 nM.
Same read-out and setting: the same measure for `Cn1cc(C(F)F)nc1-c1ccc(CNc2nc(-c3cncnc3C3CC3)nc3ccoc23)cc1` [Example 197, 2-(4-Cyclopropylpyrimidin-5-yl)-N-(4-(4-(difluoromethyl)-1-methyl-1H-imidazol-2-yl)benzyl)furo[3,2-d]pyrimidin-4-amine]: 133 nM.
Still for that read-out and setting: the same measure for `COc1cnc(-c2c(OC)ncnc2C2CC2)nc1N(C#N)Cc1ccc(-c2nc(C(F)(F)F)cn2C)cc1` [Example 206, N-(4'-cyclopropyl-5,6'-dimethoxy-[2,5'-bipyrimidin]-4-yl)-N-(4-(1-methyl-4-(trifluoromethyl)-1H-imidazol-2-yl)benzyl)cyanamide]: 3.5 nM; for `COc1cnc(-c2cccc3ccn(C)c23)nc1NCc1ccc(-n2nc(C(F)(F)F)cc2C)cc1` [Example 144, 5-Methoxy-2-(1-methyl-1H-indol-7-yl)-N-(4-(5-methyl-3-(trifluoromethyl)-1H-pyrazol-1-yl)benzyl)pyrimidin-4-amine]: 68.6 nM.
Turning to `COc1cnc(-c2c(C)noc2C(C)C)nc1N(C)CC1CCN(c2ccccn2)CC1` [Example 186, 2-(5-Isopropyl-3-methylisoxazol-4-yl)-5-methoxy-N-methyl-N-((1-(pyridin-2-yl)piperidin-4-yl)methyl)pyrimidin-4-amine], the IC50 worked out at 66 nM.
Same read-out and setting: the result for `CC(C)c1ccccc1-c1ncc2c(n1)N(CC1CCN(c3nc(C(F)(F)F)cn3C)CC1)C(=O)CO2` [Example 24, 2-(2-Isopropylphenyl)-8-((1-(1-methyl-4-(trifluoromethyl)-1H-imidazol-2-yl)piperidin-4-yl)methyl)-6H-pyrimido[5,4-b][1,4]oxazin-7(8H)-one] reads 8.8 nM.
Still for that read-out and setting: the result for `CC(C)Oc1cnc(-c2ccccc2C(C)C)nc1NCC12CCC(c3ccc(C(F)(F)F)cn3)(CC1)CC2` [Example 74, 5-Isopropoxy-2-(2-isopropylphenyl)-N-((4-(5-(trifluoromethyl)pyridin-2-yl)bicyclo[2.2.2]octan-1-yl)methyl)pyrimidin-4-amine] reads 873 nM; that for `COc1cnc(-c2ccccc2C(C)C)nc1N(C)Cc1ccc(-c2ccccn2)cc1` [Example 1, 2-(2-isopropylphenyl)-5-methoxy-N-methyl-N-(4-(pyridin-2-yl)benzyl)pyrimidin-4-amine], 26 nM.

Another test concerns MDA-MB-436. Put plainly: CTG experiment for cell viability (CellTiter-Glo, 96-well plate, 7 days). It counts as cell-based. As to conditions: Homo sapiens, MDA-MB-436, 168 h, MDA-MB-436 cells, 7 days culture with compound. On the procedure:
Test Example 2: CTG experiment for cell viability
• 1. Object: to screen USP1 inhibitors by a CTG assay, using a 96-well plate. • 2. Materials: • The cells used were MDA-MB-436 (manufacturer: Nanjing Cobioer Biotechnology Co., Ltd.) and cultured in DMEM medium, • CTG (CellTiter-Glo® Luminescent Cell Viability Assay kit) (Promega, Cat. No.: G7572), • 96-well plate (Corning, Cat. No.: 3610). • 3. Compounds: all compounds were dissolved in 100% DMSO to obtain 50 mM stock solutions. • 4. Experimental method: • ① Plating: The cells to be tested were spread into a 96-well plate at a certain density, with 200 µL per well, and 200 µL of cell medium was added to the blank wells. […] The cell plate with the compounds was placed in an incubator at 37°C, and further cultured for 7 days prior to detection. • ④ Assay: The substrate and the buffer of CTG kit were mixed evenly. The cell plate with the compounds in Step ③ was taken out from the incubator, and left at room temperature to equilibrate for 30 minutes. The medium containing the compounds was removed from the cell plate, 100 µL of PBS and 50 µL of CTG reagent were added to each well, shaken and mixed for 3 minutes, and then incubated for 10 minutes at room temperature. The plate was read by a BIotek microplate-reader, with a parameter set to 567 CPM. • 5. Curve fitting
It was the same as that for the enzyme.
In general terms: In ATP-based viability assays light output follows the ATP content of the culture.
Regarding `COc1ncnc(C2CC2)c1-c1nc(NCc2ccc(-c3ccccn3)cc2)c2occc2n1` [Example 34, 2-(4-Cyclopropyl-6-methoxypyrimidin-5-yl)-N-(4-(pyridin-2-yl)benzyl)furo[3,2-d]pyrimidin-4-amine], the IC50 worked out at 119 nM.
Still for that read-out and setting: the result for `COc1ncnc(C2CC2)c1-c1ncc2c(n1)N(Cc1ccc(-c3nc(C(F)(F)F)cn3C)cc1)CCO2` [Example 21, 2-(4-Cyclopropyl-6-methoxypyrimidin-5-yl)-8-(4-(1-methyl-4-(trifluoromethyl)-1H-imidazol-2-yl)benzyl)-7,8-dihydro-6H-pyrimido[5,4-b][1,4]oxazine] reads 1.8 nM.
